Like-named read-outs stand apart in the source and are kept apart here.
Key:
CRTh2 receptor [1] = molecular target: T1, CRTh2 receptor (Homo sapiens, UniProt Q9Y5Y4); assay: CRTh2 cAMP functional assay; format: cell-based; parameters: expressed in transfected cells; host or cells: CHO cells; conditions: CHO cells stably transfected with CRTh2; 10 nM Prostaglandin D2 and 5 μM forskolin; cAMP Alphascreen
T1 sequence (Q9Y5Y4 1-395): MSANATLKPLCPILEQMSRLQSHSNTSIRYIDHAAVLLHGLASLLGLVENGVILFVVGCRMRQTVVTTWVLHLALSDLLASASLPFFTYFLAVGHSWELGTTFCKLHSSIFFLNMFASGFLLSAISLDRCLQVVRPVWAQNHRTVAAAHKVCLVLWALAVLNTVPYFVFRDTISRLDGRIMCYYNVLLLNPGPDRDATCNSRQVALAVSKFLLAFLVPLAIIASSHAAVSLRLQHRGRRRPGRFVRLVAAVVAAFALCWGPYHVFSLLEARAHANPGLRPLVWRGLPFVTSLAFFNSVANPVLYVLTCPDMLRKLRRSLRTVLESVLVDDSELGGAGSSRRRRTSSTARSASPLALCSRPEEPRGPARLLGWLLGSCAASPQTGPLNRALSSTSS
Protocol: CRTh2 cAMP Functional Assay Protocol
For each concentration value on the dose-response curve, test compounds are prepared in assay stimulation buffer/DMSO and 5 μL/well is added to an assay plate (384 well, white optiplate).
CHO cells stably transfected with the CRTh2 receptor are prepared (dissociated from a cell culture flask and washed in PBS) to a concentration of 4×10^6/mL in assay stimulation buffer and added to the assay plate ([…]).
The assay plate is incubated at room temperature on a shaker for 15 minutes.
A mix of agonist (10 nM Prostaglandin D2) and 5 μM forskolin is prepared in assay stimulation buffer and added to the assay plate (5 μL/well).
In addition, a cAMP standard is serially diluted in assay stimulation buffer and added to separate empty wells on the assay plate (20 μL/well).
The assay plate is incubated at room temperature on a shaker for 60 minutes.
A cell lysis mix (lysis buffer containing Alphascreen™ donor beads and biotinylated cAMP) is prepared under darkened conditions 60 minutes prior to addition. Alphascreen™ acceptor beads are added to the lysis mix after 60 minutes. The resulting lysis mix is added to all wells of the assay plate (40 μL/well).
The assay plate is sealed with Topseal-S™ and incubated in the dark at room temperature on a shaker for 45 minutes. The plate is then counted using a Packard Fusion™ instrument.
The resulting counts per minute are converted to nM cAMP by using the prepared cAMP standard curve. IC50 values are then determined using Prism™ software.

CRTh2 receptor [2] = molecular target: T1, CRTh2 receptor; assay: Scintillation Proximity Assay (SPA) binding assay, 3H prostaglandin D2; parameters: expressed in transfected cells; host or cells: K562 or CHO cells (membranes)
Protocol: Scintillation Proximity Assay (SPA) Protocol
Membranes are prepared from K562 or Chinese hamster ovary (CHO) cells stably transfected with human CRTh2 receptors.
The assay is performed in a 96 well U-bottomed polypropylene plate in a final volume of 100 μL. For each concentration of test compound on the dose-response curve, the components of the assay are added sequentially as follows: test compound in DMSO/assay buffer (25 μL), ^3H prostaglandin D2 (25 μL) and CRTh2 membrane fragments (50 μL). The assay is incubated at ambient temperature with shaking for 60 minutes, and then harvested on to filter plates. The plate is dried for 2 hours, prior to addition of Micro-Scint 20™ (50 μL) and sealing with TopSeal-S™. Plates are then counted using a Packard Top Count instrument, each well being counted for 20 minutes. Ki values are determined using Sigma Plot™ software, using the Cheng-Prussoff equation.

[3] = membranes from K562 or CHO cells stably transfected with human CRTh2, 3H prostaglandin D2, read-out: Ki values in the SPA binding assay

| Structure (SMILES) | IC50 (CRTh2 receptor [1]) [nM] | Ki (CRTh2 receptor [2]) [nM] | Ki (CRTh2 receptor [2]; [3]) [nM] |
| --- | --- | --- | --- |
| O=C(O)COc1ccc(Cl)cc1C1CCCCCC1 [Example 2, (4-Chloro-2-cycloheptylphenoxy)acetic acid] | 148 | 60 | – |
| O=C(O)COc1ccc(C(F)(F)F)cc1C1CCCCC1 [Example 13, (2-Cyclohexyl-4-trifluoromethyl-phenoxy)-acetic acid] | 139 | – | 21 |
| O=C(O)COc1ccc(Br)cc1C1CCCCCC1 [Example 5, (4-Bromo-2-cycloheptylphenoxy)acetic acid] | 138 | – | 70 |
| O=C(O)COc1ccc(Br)cc1C1CCCCC1 [Example 3, (4-Bromo-2-cyclohexylphenoxy)acetic acid] | 190 | – | – |

From patent publication US20080269335A1, “Crth2 Receptor Antagonists” (priority 2004, published 2008)
